Results reported in PMC11604048, “Constrained TACC3 peptidomimetics for a non-canonical protein–protein interface elucidate allosteric communication in Aurora-A kinase” (Chemical Science, 2024).
Like-named read-outs stand apart in the source and are kept apart here. *1 amine or outer side, *2 acyl side, *3 side chain or, on linkers, in order; H or OH if unused. Where a SMILES comes first, the peptide text is derived from it. Bridges are numbered along the chain shown (N, C = ends). [ ]: non-standard residue; d: D form. The star is where a group is joined. 5FAM = O=C1OC2(c3ccc(O)cc3Oc3cc(O)ccc32)c2ccc(C(=O)*)cc21; Biphenyl(4,4'-CH2)2 = c1cc(-c2ccc(C[*:2])cc2)ccc1C[*:1]; Pro(trans-4-F) = O=C(O)[C@@H]1C[C@@H](F)CN1; Phe(4-Br) = N[C@@H](Cc1ccc(Br)cc1)C(=O)O; Ahx = NCCCCCC(=O)O

Target: T1, Aurora-A122-403-C290A/C393A (Homo sapiens, UniProt O14965, C290A/C393A)
T1 construct: Human Aurora-A kinase domain 122-403 wild-type or C290A/ C393A mutant; His tag (pET30TEV vector) (N, cleaved yes); made in house; host or cells: E. coli RIL, co-expressed with lambda phosphatase (Aurora-A); tracer by solid phase synthesis
T1 sequence (O14965 122-403 C290A/C393A): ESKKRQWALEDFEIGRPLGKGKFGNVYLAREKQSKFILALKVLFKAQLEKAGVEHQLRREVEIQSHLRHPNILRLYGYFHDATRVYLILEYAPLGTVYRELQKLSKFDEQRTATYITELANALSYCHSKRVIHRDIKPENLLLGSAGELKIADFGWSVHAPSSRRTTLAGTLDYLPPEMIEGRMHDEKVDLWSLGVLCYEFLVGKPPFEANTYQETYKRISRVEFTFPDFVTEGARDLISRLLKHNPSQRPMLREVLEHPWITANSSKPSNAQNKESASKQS
Test: FA direct binding assay (Aurora-A titrated into FAM-Ahx-labelled peptide)
Design: ΔG: unit not given here
Description: Fluorescence anisotropy (FA) assays – General information.
All assays were performed using 384-well plates(Greiner Bio-one, UK). […]
produced as described previously.11 All samples were prepared in 25 mM Tris,150 mM NaCl, 5 mM MgCl2, […]
(PerkinElmer; Waltham, MA, USA).The parameters were set as follows: Excitation wavelength = 480 nm […]
Measured data were processed and analysed as previously described.12 Specifically, the perpendicular intensity (P) and parallel intensity (S) were subtracted by the control values and used for calculations of intensity and anisotropy using the following Equations 1, 2, 3, 4, and 5:
I= (2PG) + S Eq. (SI − 5)
r = (S − PG) Eq. (SI − 6)
L = r − r௠௜௡ Eq. (SI − 7)
y = (k + x + [FL]) − ඥ(k + x + [FL]2 − 4 ∗ x ∗ [FL]) Eq. (SI − 8)
y = r + r௠௜௡ − r௠௔௫ Eq. (SI − 9)
Where I = total intensity; P = perpendicular intensity; S = parallel intensity; G = instrument factor; r = anisotropy; Lb = ligand bound fraction; λ = change in intensity between bound and unbound states which […]
FA direct binding assays. […]
starting from 700 μM, diluted over 24 points in a 1/2 regime using the FAM-Ahx-labeled peptides at a final fixed concentration of 50 nM per well.

[1] = direct FA titration of Aurora-A122-403-C290A/C393A into 50 nM FAM-Ahx-labelled peptide, 25 mM Tris, 150 mM NaCl, 5 mM MgCl2, pH 7.5, 25 °C, mean ± SD, n = 3, read-out: Kd

Row | Kd [1] | Structure (SMILES) | further results
1 | 4.5 ± 0.2 µM | CC(C)C[C@H](NC(=O)[C@H](Cc1ccc(O)cc1)NC(=O)[C@H](CC(=O)O)NC(=O)[C@@H](NC(=O)[C@H](CCC(=O)O)NC(=O)[C@H](C)NC(=O)CNC(=O)[C@@H](NC(=O)CNC(=O)[C@H](CC(C)C)NC(=O)[C@@H](NC(=O)[C@H](CCC(=O)O)NC(=O)[C@H](C)NC(=O)[C@@H]1CCCN1C(=O)[C@H](CC(=O)O)NC(=O)[C@H](CCCNC(=N)N)NC(=O)[C@H](Cc1ccccc1)NC(=O)[C@H](CO)NC(=O)[C@H](CCC(=O)O)NC(=O)[C@H](CCC(=O)O)NC(=O)CCCCCNC(=O)c1ccc2c(c1)C(=O)OC21c2ccc(O)cc2Oc2cc(O)ccc21)C(C)C)[C@@H](C)O)C(C)C)C(=O)N[C@@H](CCC(=O)O)C(N)=O [FAM-Ahx-TACC3 522-542] ({5FAM-Ahx}-EESFRDPAEVLGTGAEVDYLE-NH2) | –
2 | 7.1 ± 0.8 µM | CC(C)C[C@H](NC(=O)[C@@H](NC(=O)[C@H](CCC(=O)O)NC(=O)[C@H](C)NC(=O)[C@@H]1CCCN1C(=O)[C@H](CC(=O)O)NC(=O)[C@H](CCCNC(=N)N)NC(=O)[C@H](Cc1ccccc1)NC(=O)[C@H](CO)NC(=O)[C@H](CCC(=O)O)NC(=O)[C@H](CCC(=O)O)NC(=O)CCCCCNC(=O)c1ccc2c(c1)C(=O)OC21c2ccc(O)cc2Oc2cc(O)ccc21)C(C)C)C(N)=O [FAM-Ahx-TACC3 522-532] ({5FAM-Ahx}-EESFRDPAEVL-NH2) | –

The remaining lines, values behind:

Row | Structure (SMILES) | Kd [1] | further results
3 | CC(C)C[C@H](NC(=O)[C@@H](NC(=O)[C@H](CCC(=O)O)NC(=O)[C@H](C)NC(=O)[C@@H]1CCCN1C(=O)[C@H](CC(=O)O)NC(=O)[C@H](CCCNC(=N)N)NC(=O)[C@H](Cc1ccccc1)NC(=O)[C@H](CO)NC(=O)[C@H](CCC(=O)O)NC(=O)[C@H](CCC(=O)O)NC(=O)CCCCCNC(=O)c1ccc2c(c1)C(=O)OC21c2ccc(O)cc2Oc2cc(O)ccc21)C(C)C)C(=O)NCC(=O)N[C@H](C(=O)NCC(=O)N[C@@H](C)C(N)=O)[C@@H](C)O [FAM-Ahx-TACC3 522-536] | – | Kd (SD): 10.5 ± 1.13 µM
4 | CC(C)C[C@H](NC(=O)[C@H](Cc1ccc(O)cc1)NC(=O)[C@H](CC(=O)O)NC(=O)[C@@H](NC(=O)[C@H](CCC(=O)O)NC(=O)[C@H](C)NC(=O)CNC(=O)[C@@H](NC(=O)CNC(=O)[C@H](CC(C)C)NC(=O)[C@@H](NC(=O)[C@H](CCC(=O)O)NC(=O)[C@H](C)NC(=O)[C@@H]1CCCN1C(=O)[C@H](CC(=O)O)NC(=O)[C@H](CCCNC(=N)N)NC(=O)[C@H](Cc1ccccc1)NC(=O)[C@H](CO)NC(=O)[C@H](CCC(=O)O)NC(=O)[C@H](CCC(=O)O)NC(=O)CCCCCNC(=O)c1ccc2c(c1)C(=O)OC21c2ccc(O)cc2Oc2cc(O)ccc21)C(C)C)[C@@H](C)O)C(C)C)C(=O)N[C@@H](CCC(=O)O)C(=O)N[C@@H](CCC(N)=O)C(=O)N[C@@H](Cc1ccccc1)C(=O)NCC(=O)N[C@H](C(=O)N[C@@H](CO)C(=O)N[C@@H](CO)C(=O)N[C@@H](Cc1ccccc1)C(=O)N[C@@H](CCCCN)C(=O)N[C@@H](CCC(=O)O)C(=O)N[C@@H](CO)C(N)=O)[C@@H](C)O [FAM-Ahx-TACC3 522-552] ({5FAM-Ahx}-EESFRDPAEVLGTGAEVDYLEQFGTSSFKES-NH2) | 5.2 ± 0.5 µM | –
5 | CC(C)C[C@H](NC(=O)[C@@H](NC(=O)[C@H](CCC(=O)O)NC(=O)[C@H](C)NC(=O)[C@@H]1C[C@@H](F)CN1C(=O)[C@H](CC(=O)O)NC(=O)[C@@H]1CSCc2ccc(cc2)-c2ccc(cc2)CSC[C@H](NC(=O)[C@H](CCC(=O)O)NC(=O)[C@H](CC(C)C)NC(=O)CCCCCNC(=O)c2ccc3c(c2)C(=O)OC32c3ccc(O)cc3Oc3cc(O)ccc32)C(=O)N[C@@H](CCCCN)C(=O)N[C@@H](CCC(=O)O)C(=O)N[C@@H](CCC(=O)O)C(=O)N[C@@H](CO)C(=O)N[C@@H](Cc2ccc(Br)cc2)C(=O)N1)C(C)C)C(N)=O [FAM-Ahx-TACC3 518-532-L/R-Bph-BrF/fP] ({5FAM-Ahx}-LECKEES[Phe(4-Br)]CD[Pro(trans-4-F)]AEVL-NH2; linker 3-9 via Biphenyl(4,4'-CH2)2) | – | Kd (Table S6, direct FA titration, 50 nM fluorescein-labelled peptide, Tris buffer pH 7.5, mean ± SD, n = 6, read-out: Kd): 1.48 ± 0.16 µM; ΔG (Table S6, from direct FA titration, 50 nM fluorescein-labelled peptide, mean ± SD, n = 6): -33.3 ± 0.3
